According to patent US9891235B2, “Pathway specific assays for predicting irritable bowel syndrome diagnosis” (NESTEC S.A., priority 2013, dated 2018):

What was measured:
[1] = Stability of 5-HT and 5-HIAA (TLC, loss of signal); format: physicochemical
anti-KYA-L antibody = assay: Competitive assay with biotinylated kynurenic acid, competitors; format: binding, rabbit; conditions: increasing amounts of competitor, FIG. 18
Experimental: Also, the cross-reactivity of the antiserum was tested using a competitive assay as diagramed in FIG. 12B. The biotinylated antigen (e.g., biotinylated Ser-D) was coated onto a streptavidin plate. Serotonin (5-HT) or pathway metabolites thereof (e.g., Tryp, 5-OH Tryp or 5-HIAA) in human serum were derivatized and added to the antiserum. The mixture was added to the plate and incubated for 1 hour at RT. The plate was washed several times with wash buffer. The goat anti-rabbit antibody-HRP conjugate solution was added and incubated for 1 hour at RT. The plate was washed several times in wash buffer. A color substrate was added for the colorimetric reaction and stop solution was added prior to reading the plate at 405 nm.
The cross-reactivity of the anti-KYA-L antibody was tested using the competitive assay described above. Briefly, kynurenic acid metabolites, such as L-kynurenine (Ky), 3-hydroxy-DL-kynurenine (H-Ky) and L-tryptophan (Tryp) were used to compete with biotinylated kynurenic acid for antibody binding.

| sensitivity to oxygen / stability [1] | time in which degradation occurs ([1]; 4° C., from thawing, TLC (FIG. 3)) | stability (FIG. 4) ([1]; during a period of 1 week) | Compound | effect of competitor on level of anti-KYA-L detected (anti-KYA-L antibody) |
| --- | --- | --- | --- | --- |
| very unstable | about 7 hours | unstable | NCCc1c[nH]c2ccc(O)cc12 [Compound 5-HT, serotonin] | – |
| – | – | – | Nc1ccccc1C(=O)C[C@H](N)C(=O)O [Ky, L-kynurenine] | did not change |
| – | – | – | NCCCCCC(=O)Nc1ccc2nc(C(=O)O)cc(O)c2c1 [KYA-L, 6-(6-aminohexanamido)-4-hydroxyquinoline-2-carboxylic acid] | competed |
| – | – | – | N[C@@H](Cc1c[nH]c2ccccc12)C(=O)O [Trypt, L-tryptophan] | did not change |
| – | – | – | Nc1c(O)cccc1C(=O)CC(N)C(=O)O (racemic) [H-Ky, 3-hydroxy-DL-kynurenine] | did not change |
